Test results taken from patent publication US20110098359A1, “Compositions and Methods for Treatment of Glaucoma” (Stellenbosch University, priority 2007, published 2011).

Key:
[1] = Permeability experiments in flow-through diffusion cells across rabbit corneas; assay type: in vitro ADME; conditions: for steady-state flux values: frozen/thawed rabbit cornea, 20° C.
Source text: (§1) Harvested donor comeas, which were deemed unsuitable for transplantation because of infections such as hepatitis B and human immunodeficiency virus (HIV), were obtained from The Eye Bank Foundation of South Africa Observatory from 6 patients (mean age±SD, 35±12 years; range, 24-65 years). In addition, rabbit corneas were obtained from 6 freshly slaughtered rabbits (Country Lane Nursery Farm, Kraaifontein, Cape Town, South Africa). Excised corneas were immediately placed in McCarey-Kaufman solution and transported to a laboratory within 6 hours. The McCarey-Kaufman solution consisted of a stock solution of Medium 199 (Sigma Chemical Company, St. Louis, Mo., U.S.A.) to which sodium bicarbonate, as well as 25 mM of HEPES and 5% dextran, was added before using the solution for the transport of corneal specimens. On arrival in the laboratory, the corneas were hemisected. One half was used immediately, and the other half was snap-frozen in liquid nitrogen and stored at −85° C. for no longer than 6 months before use. At least one piece of corneal tissue from each specimen was placed in formalin and retained for histologic examination.
(§2) Before each permeability experiment, tissue specimens were thawed at room temperature in phosphate buffered saline (PBS, pH 7.4). […]
(§3) Following equilibration, the PBS was removed from the donor compartment and replaced with 1.0 mL of PBS, containing 1 mg/mL (0.1%) paracetamol in PBS at pH 7.4 (w/v) or else 1 mg/mL (0.1%) paracetamol in a commercially available artificial tear gel i.e. Teargel® liquid gel (Restan Laboratories, Bryanston, South Africa). […] Samples were analyzed at the Division of Pharmacology, Faculty of Health Sciences, Stellenbosch University by HPLC with UV detection. The collected fractions were analyzed directly after completion of the respective experiment for their paracetamol content.
(§4) Flux (J) values across membranes were calculated by means of the relationship
(§5) where Q indicates quantity of substance crossing membrane (in ng); A, membrane area exposed (in cm^2); and t, time of exposure (in minutes). […]

[2] = Initial trials: oral paracetamol in patients with glaucoma, intra-ocular pressure reduction; assay type: in vivo, human; conditions: 1000 mg orally 4 to 6 hourly, after 24 to 48 hours
Experimental: In initial trials, 1000 mg of paracetamol was administered orally 4 to 6 hourly to several patients with glaucoma. In all cases the intra-ocular pressure reduction was in the order of 30% after 24 to 48 hours. This compares well with the pressure lowering effect of currently available commercial preparations.

[3] = Permeability experiments in flow-through diffusion cells across human corneas; assay type: in vitro ADME; conditions: for steady-state flux values: frozen/thawed human cornea, 20° C.
Source text: as §1, §2, §3, §4, §5

[4] = Corneal penetration experiments (general statement); assay type: in vitro ADME; conditions: more than 2000 corneal penetration experiments
Experimental: An ophthalmic solution was made up as follows: 1 mg/ml (0.1%) solution of paracetamol in phosphate buffered saline (pH=7.4) was used for half of the experiments and 1 mg/ml (0.1%) solution of paracetamol in phosphate […]. […] These tests were conducted in the following manner.

[5] = 0.1% paracetamol in Teargel (TG)

steady-state flux values ([1]; 0.1% paracetamol in PBS pH 7.4): 774±30 ng·cm^−2·min^−1 | steady-state flux values [1, 5]: 860±39 ng·cm^−2·min^−1 | effect of Teargel on the diffusion rate of paracetamol ([1]; across rabbit corneas, Teargel vs PBS, 0.1%): increase the diffusion rate | steady-state flux values ([3]; 0.1% paracetamol in PBS pH 7.4): 870±76 ng·cm^−2·min^−1 | steady-state flux values [3, 5]: 860±33 ng·cm^−2·min^−1 | effect of Teargel as a soluent on the diffusion rate of paracetamol ([3]; across human corneas, Teargel vs PBS, 0.1%): did not affect the diffusion rate | corneal penetration [4]: does penetrate the cornea well
SMILES: CC(=O)Nc1ccc(O)cc1 [paracetamol]
intra-ocular pressure reduction [2]: ~30%
